Measurements published in US20240058288A1, “DRUG COCKTAIL FOR TREATMENT OF PARKINSON'S DISEASE, LEWY BODY DISEASE AND MULTIPLE SYSTEM ATROPHY” (ALETA NEUROSCIENCE, LLC, priority 2021, published 2024).
Read-outs that look alike come from different tables or passages of the source.

Legend:
[1] = test system: human dopaminergic neurons (iCell DopaNeurons); assay: MPP+-induced neurotoxicity: cytolysis of iCell DopaNeurons; assay type: cell-based
Description: (§1) We conducted an in vitro study of the drugs in Table 1 to evaluate the neuroprotective effects of 44 conditions of treatment (Table 2, experiments 1-41; 51-53) against MPP+-induced neurodegeneration toxicity on human dopaminergic neurons (iCell® DopaNeurons: iPS cell-derived human midbrain floorplate dopaminergic neurons). Further combinations (Table 2, experiments 42-50 and Table 3) are also disclosed.
(§2) Three different measurements were made in the experiments. 1. Neurite length in mm is a measure of increase in dendrite length of neurons. […] 2. neurite branching is measure of dendrite branching. […] 3. Cytolysis of the cells is a measure of cell death. […] Experimental conditions were measured relative to the results of healthy cells in the studies.
(§3) Procedure. iCell DOPA neurons were thawed and cultured following the provider's instructions in Brainphys medium+provided supplements+1% N2 supplement (Stemcell Technologies)+penicillin/streptomycin+Laminin. They were plated at 20000 cells per well of a 384 well plate (pre-coated with poly-D-lysine and Laminin) in 70 μL of growth medium. Cells were incubated at 37° C./5% CO2 in a humidified cell culture incubator. Half of the culture medium was changed twice a week.
(§4) MPP+-induced neurotoxicity: 24 hours after neuronal plating, half of the medium was removed and the test compounds were applied with MPP+ treatment, both concentrated at 4×, were added to the wells. For each condition, six aliquots were added, corresponding to columns A-F in Table 2. Except for the NT/NT row, in each row, either the compound indicated dissolved in its vehicle noted in Table 1 was added, or only a vehicle was added as indicated. Column F is an indicator of whether MPP+ was added. If not, only the medium was added.
(§5) For the evaluation of conditions 1-28, Neurite outgrowth was followed for subsequent 48 hours using an Incucyte Zoom platform with one phase contrast image every 4 hours, using a 20× objective. After 48 hours, the medium containing test compounds and MPP+ was removed and replaced by fresh medium containing a fluorescent cytolysis marker (red fluorescence) and a live cell marker (green fluorescence). For the evaluation of conditions 29-53, Neurite outgrowth was followed similarly for subsequent 72 hours after MPP+ was added.
Data was normalized to control conditions as there is basal cytolysis in the cell culture after thawing.
Fluorescently immuno-stained cells were imaged on a high content imaging platform. Individual segmentation of cells was performed by image analysis of the MAP2 and NeuN staining. The number of neurons and the neurite length were measured. The percentage of cytolyzed cells was also calculated.
(§6) Statistical analysis. We used one-way ANOVA followed by Bonferroni's multiple comparisons test.

[2] = test system: human dopaminergic neurons (iCell DopaNeurons); assay: MPP+-induced neurotoxicity: neurite outgrowth (neurite length, branch points) of iCell DopaNeurons, Incucyte; assay type: cell-based; conditions: for Neurite Length Data, Mean ± S.D.: Table 5.1 (FIG. 5A); for Neurite Length Data, Mean ± S.D. / Neurite Branching Data, Mean ± S.D.: conditions 17-28, AUC of kinetic data; for Neurite Branching Data, Mean ± S.D.: Table 5.2 (FIG. 5B); for effects on neurite outgrowth: vs MPP+ alone
Description: as §1
iCell DOPA neurons are neural floor plate-derived midbrain dopaminergic neurons generated from human induced pluripotent stem cells (iPSCs). Dopaminergic neurons, specifically those located in the floor plate-derived midbrain are implicated in neurological disorders such as Parkinson's disease, MSA and DLBD among others. Thus iCell DopaNeurons provide a highly relevant in vitro model to investigate these types of pathologies (42, 43). The iCellDopa neurons were supplied from FUJIFILM Cellular Dynamics.
as §2, §3, §4, §5
Each condition 1-41 and 51-53 was repeated in 8 wells of a 384 well plate, that is, each test condition studied in Table 2 was repeated eight times. NT/NT were cells in the standard medium only. Control/NT are the cells in the vehicle (as described above), with and without MPP+.
Assay endpoints and data analysis. Phase contrast images were analyzed at each time point to determine the neurite length and number of branch points per mm^2. Kinetic data was plotted and kinetics were normalized by subtracting the value of the first data point (at time of treatment), allowing to measure changes in neurite outgrowth only from the onset of the treatment, starting at zero. Area Under Curve (AUC) of kinetic data was obtained and used for plotting compound's effects and perform statistical analyzes.
as §6

[3] = PD patients, small double-blind placebo controlled trial; cited from earlier work
[4] = test system: IL-1β; assay: LPS/ATP-induced IL-1β in human microglia cells; assay type: cell-based; conditions: as compared with […] distilled water in presence of LPS and ATP
[5] = test system: IL-6; assay: LPS/ATP-induced IL-6 secretion by human microglia cells (Luminex); assay type: cell-based; conditions: as compared with […] distilled water in presence of LPS and ATP
Description: (§7) In addition to the studies discussed above assessing activity of combinations of drugs on MPP+-induced neurodegeneration toxicity on human dopaminergic neurons and measuring neuronal growth and neurite branching, we also assessed combinations of drugs in reducing lipopolysaccharide (LPS, from E. coli)-induced neuroinflammation.
(§8) Lipopolysaccharides are important outer membrane components of gram-negative bacteria such as E. coli and salmonella. They are large amphipathic glycoconjugates that typically consist of a lipid domain (hydrophobic) attached to a core oligosaccharide and a distal polysaccharide. LPS binds to Toll-like receptor 4 (TLR4) and activates microglia (51) which in turn increases secretion of pro-inflammatory cytokines such as interleukin-6 (IL-6), tumor necrosis factor-α (TNF-α), and CXCL1/GROα.
(§9) Microglia cells were obtained from an iCell® Microglia kit, 01279 (Catalogue N° R1131) from FUJIFILM Cellular Dynamics. We followed the manufacturer's protocol for activation of the microglial cells with LPS/ATP to subsequently measure the effect of the study drugs on pro-inflammatory cytokines IL-6, TNF-α and CXCL1/GROα.
(§10) All cell culture procedures were performed in aseptic conditions, under a laminar flow hood. Microglia were thawed and cultured following the provider's instructions. The microglia were plated at 50,000 cells per well of a Corning Primaria 96 well plate (Ref N° 353872) in 100 μL of growth medium. Cells were incubated at 37° C./5% CO2 in a humidified cell culture incubator.
(§11) Three days after cell plating, the test or reference substances (25 μL of solutions at 5×) were applied 1 hour before LPS and ATP stimulation.
(§12) One hour later, 12.5 μL of test or reference substances were added again at 2× concentrated followed by 12.5 μL of LPS at 12× concentration. Fifty microliters of ATP were introduced at 4× concentration, 5 h 30 min after incubation with LPS.
(§13) Six hours after LPS incubation, the supernatant of each well was collected and centrifugated at 1000 g for 10 minutes to remove the cells and debris.
(§14) Fifty microliters of supernatant from NT and LPS+ATP-treated wells were used to determine cytokine secretion (IL-6, TNF-α, CXCL1/GROα) by Luminex platform according to the provider's instructions. Samples were diluted prior to the assay to fit within the standard range if needed. Three wells were tested per each condition (Table 10). Cytokines levels in the supernatant were expressed in pg/mL. The data was analyzed using a One-Way ANOVA followed by Bonferroni test.

[6] = test system: TNF-α; assay: LPS/ATP-induced TNF-α secretion by human microglia cells (Luminex); assay type: cell-based; conditions: as compared with […] distilled water in presence of LPS and ATP
Description: as §7, §8, §9, §10, §11, §12, §13, §14

[7] = MPP+ 100 μM, Table 8.2 (FIG. 7C), PCI 30 μM
[8] = MPP+ 100 μM, Table 6.2 (FIG. 7A), followed 72 hours, PCI 30 μM

Nc1c(Br)cc(Br)cc1CN[C@H]1CC[C@H](O)CC1 [AMB, Ambroxol]
Cytolysis, %, Plate 2, Mean ± S.D. [1, 7]: 73.29 ± 2.23%
Neurite Length Data, Mean ± S.D. ([2]; MPP+ 100 μM): 763.9 ± 209.8 mm/mm^2
Neurite Branching Data, Mean ± S.D. ([2]; MPP+ 100 μM): 20281.6 ± 8723.4 per mm^2
Neurite length, plate 2, Mean ± S.D. [2, 8]: 1332.1 ± 174.8 mm/mm^2
effects on neurite outgrowth ([2]; MPP+ 100 μM): no significant effects

Cc1c(O)c(=O)ccn1C [DFP, Deferiprone]
substantia nigra iron deposits (MRI) and motor scores of disease progression [3]: showed improvement
Cytolysis, %, Plate 2, Mean ± S.D. [1, 7]: 71.91 ± 1.28%
Neurite Length Data, Mean ± S.D. ([2]; MPP+ 100 μM): 874.5 ± 190.4 mm/mm^2
Neurite Branching Data, Mean ± S.D. ([2]; MPP+ 100 μM): 24282.5 ± 6612.9 per mm^2
Neurite length, plate 2, Mean ± S.D. [2, 8]: 1303.0 ± 378.7 mm/mm^2
Neurite Branching Data, Plate 2, Mean ± S.D. ([2]; MPP+ 100 μM, Table 7.2 (FIG. 7B), followed 72 hours, PCI 30 μM): 51711.3 ± 15178.4 per mm^2
effects on neurite outgrowth ([2]; MPP+ 100 μM): no significant effects

CC(C)(O)c1coc(S(=O)(=O)NC(=O)Nc2c3c(cc4c2CCC4)CCC3)c1 [MCC950]
concentration of IL-1β [4]: significantly decreased
concentration of IL-6 [5]: significantly decreased
concentration of TNF-α [6]: significantly decreased

CC(C)[C@H](NC(=O)c1ccc2ccccc2n1)C(=O)N[C@@H](CC(=O)O)C(=O)COc1c(F)cccc1F [PCI/MPP+, Q-VD-OPh]
Cytolysis, %, Plate 1, Mean ± S.D. [1]: 65.56 ± 1.89%
Cytolysis, %, Plate 2, Mean ± S.D. [1]: 67.93 ± 3.52%
Neurite Branching Data, Plate 1, Mean ± S.D. [2]: 38456.3 ± 11570.7 per mm^2
Neurite Branching Data, Plate 2, Mean ± S.D. [2]: 52610.1 ± 16660.1 per mm^2
Neurite length data, plate 1, Mean [2]: 1301.0 mm/mm^2
Neurite length, plate 2, Mean ± S.D. [2]: 1430.1 ± 321.7 mm/mm^2
